Test results as given in patent US20240254138A1, “TRICYCLIC PYRIMIDINES AS CYCLIN-DEPENDENT KINASE 7 (CDK7) INHIBITORS” (JANSSEN PHARMACEUTICA NV, priority 2021, published 2024).
Where two headings read alike, the source gives them in different places.

Legend:
[1] = target: CDK7/cyclinH/MAT1 trimeric complex (Homo sapiens, UniProt P50613); test: In vitro CDK7 assay, potency of irreversible covalent inhibitors (kinact/KI), coupled PK/LDH ADP readout at 340 nm
[2] = tested on: RNA Polymerase II Serine 5 phosphorylation in A549 cells overexpressing CDK7-mutant (C312S); test: Imaging-based cellular RNA PolII Ser5 phosphorylation assay in A549 cells overexpressing CDK7-mutant (C312S); assay type: cell-based, human; settings: RNA PolII Ser5 phosphorylation, averaged over all measurements; for IC50: Homo sapiens, A549, A549 cells overexpressing CDK7-mutant (C312S), read-out: CDK7_A549 mutant hCDK7(pIC50) (converted); for CDK7_A549 mutant hCDK7(pIC50): A549 cells overexpressing CDK7-mutant (C312S)
In short: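 Readout was automated imaging of anti-phospho-Ser5 Rpb1 CTD immunofluorescence, with IC50 fitted to % control versus concentration. Cells were A549 stably overexpressing non-covalently targetable CDK7 C312S alongside wild-type, exposed to compound 3 h at 37 °C. DMSO and 10 μM reference compound served as controls.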

[3] = tested on: RNA Polymerase II Serine 5 phosphorylation (Rpb1 CTD, downstream substrate of CDK7) in A549 cells; test: Imaging-based cellular RNA PolII Ser5 phosphorylation assay in A549 cells; assay type: cell-based, human; settings: wild-type CDK7, RNA PolII Ser5 phosphorylation, averaged over all measurements; for IC50: Homo sapiens, A549, A549 cells, read-out: CDK7_A549 Wild-type CDK7 (pIC50) (converted); for CDK7_A549 Wild-type CDK7 (pIC50): A549 cells
In short: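 IC50 derived by fitting % control (DMSO high, 10 μM reference low) against concentration, with Hill slope. Readout: high-content imaging of phospho-Ser5 Rpb1 CTD antibody staining in fixed, permeabilized A549 cells exposed to compound 3 h after 20 h culture in 1% FBS DMEM.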

[4] = CDK7 (20 nM enz.) (KI, μM), 20 nM enzyme
[5] = read-out: CDK7 (20 nM enz.) (kinact, s^−1), 20 nM enzyme
[6] = read-out: CDK7 (20 nM enz.) (kinact/KI, M^−1*s^−1), 20 nM enzyme
[7] = read-out: CDK7 (kinact/KI, M^−1*s^−1), potency of irreversible covalent inhibitors, 1 mM ATP, room temperature, averaged values over all measurements
[8] = read-out: CDK7 (20 nM enz.) (kobs/[I], M^−1*s^−1), 20 nM enzyme

Sequence of CDK7/cyclinH/MAT1 trimeric complex (P50613 whole entry): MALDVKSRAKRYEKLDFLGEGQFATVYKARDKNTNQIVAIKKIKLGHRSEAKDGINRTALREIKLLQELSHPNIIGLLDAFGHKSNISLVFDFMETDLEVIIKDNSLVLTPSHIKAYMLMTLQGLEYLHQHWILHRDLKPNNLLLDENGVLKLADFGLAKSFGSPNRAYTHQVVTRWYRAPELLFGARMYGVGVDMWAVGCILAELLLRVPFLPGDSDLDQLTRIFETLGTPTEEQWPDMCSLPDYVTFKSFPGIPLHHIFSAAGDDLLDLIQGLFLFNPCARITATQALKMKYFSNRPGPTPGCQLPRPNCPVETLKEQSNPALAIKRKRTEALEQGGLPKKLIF
Sequence of CDK7/cyclinH/MAT1 trimeric complex (P51946 whole entry partner): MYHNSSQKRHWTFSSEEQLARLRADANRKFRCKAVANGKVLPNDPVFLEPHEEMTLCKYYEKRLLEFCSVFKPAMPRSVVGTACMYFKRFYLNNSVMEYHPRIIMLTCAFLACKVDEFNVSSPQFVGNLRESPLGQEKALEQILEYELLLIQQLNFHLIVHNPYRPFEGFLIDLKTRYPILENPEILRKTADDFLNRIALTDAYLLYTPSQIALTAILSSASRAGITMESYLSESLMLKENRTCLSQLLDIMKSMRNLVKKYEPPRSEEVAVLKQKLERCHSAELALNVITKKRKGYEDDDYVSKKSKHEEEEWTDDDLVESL
Sequence of CDK7/cyclinH/MAT1 trimeric complex (P51948 whole entry partner): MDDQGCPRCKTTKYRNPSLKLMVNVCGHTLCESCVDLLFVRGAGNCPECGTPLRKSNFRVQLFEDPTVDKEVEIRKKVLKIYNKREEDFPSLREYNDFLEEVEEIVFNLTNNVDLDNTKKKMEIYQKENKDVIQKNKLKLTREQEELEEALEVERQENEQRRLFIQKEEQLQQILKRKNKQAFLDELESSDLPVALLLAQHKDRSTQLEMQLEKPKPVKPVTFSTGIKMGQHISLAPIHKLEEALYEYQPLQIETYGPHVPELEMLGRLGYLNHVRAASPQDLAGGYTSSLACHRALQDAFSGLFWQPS

Row | Structure (SMILES) | Ki [1, 4] | kinact [1, 5] | kinact/KI [1, 6] | kinact/KI [1, 7] | IC50 [2] | IC50 [3] | kinact/KI [1, 8] | Ki ([1]; CDK7 (KI(μM)), […], 1 mM ATP, room temperature, averaged values over all measurements) | CDK7 (kinact/KI, M^−1*s^−1) ([1]; potency of irreversible covalent inhibitors, 1 mM ATP, room temperature, averaged values over all measurements) | kinact ([1]; read-out: CDK7 (kinact, s^−1), kinact = maximal rate of inactivation, 1 mM ATP, room temperature, averaged values over all measurements) | CDK7_A549 mutant hCDK7(pIC50) [2] | CDK7_A549 Wild-type CDK7 (pIC50) [3] | CDK7 (20 nM enz.) (kobs/[I], M^−1*s^−1) ([1]; 20 nM enzyme)
1 | C=CC(=O)N1CC[C@H](N2CCC(c3ccc4c(c3)Nc3nccc(N5CCOCC5)c3CO4)CC2)C1 (single isomer, unassigned) [Compound 38] | 0.0619 µM | 6.91e-05 s⁻¹ | 1120 M⁻¹ s⁻¹ | 744 M⁻¹ s⁻¹ | > 10000 nM | 158 nM | – | – | – | – | – | – | –
2 | C=CC(=O)N1CC[C@@H](N2CC(c3cc(C)c4c(c3)Nc3nccc(N5CCOCC5)c3[C@H](C)O4)C2)C1 (single isomer, unassigned) [Compound 227] | 3.01 µM | 6.83e-05 s⁻¹ | 22.7 M⁻¹ s⁻¹ | – | > 10000 nM | 724 nM | – | – | – | – | – | – | –
3 | CCOC(=O)/C=C/C(=O)N1CC(N2CCC(c3cc4c(c(C)n3)OCc3c(-c5cnn(C)c5)ccnc3N4)CC2)C1 [Compound 435] | – | – | – | – | > 10000 nM | 69.2 nM | 856 M⁻¹ s⁻¹ | – | – | – | – | – | –
4 | C=CC(=O)N1CC(N2CCC(c3ccc4c(c3)Nc3nccc(N5CCOCC5)c3CO4)CC2)C1 [Compound 4] | – | – | – | – | – | – | – | 0.0617 µM | 3147.06 M⁻¹ s⁻¹ | 0.000303 s⁻¹ | <5 | 6.84 | –
5 | C=CC(=O)N1CC(N2CCC(c3ccc4c(c3)Nc3nccc(-c5cnn(C)c5)c3[C@@H](C)O4)CC2)C1 (single isomer, unassigned) [Compound 127] | – | – | – | – | 8320 nM | 27.5 nM | 1420 M⁻¹ s⁻¹ | – | – | – | – | – | –
6 | C=CC(=O)N1CC(N2CCC(c3cc(C)c4c(c3)Nc3ncc(C#N)c(N5CCOCC5)c3CO4)CC2)C1 [Compound 156] | 0.304 µM | 9.03e-05 s⁻¹ | 298 M⁻¹ s⁻¹ | – | > 10000 nM | 490 nM | – | – | – | – | – | – | –
7 | CC#CC(=O)N1CCC(N2CC(c3cc4c(c(C#N)n3)OCc3c(-c5cnn(C)c5)ccnc3N4)C2)C1 (stereo not shown) [Compound 529] | 0.0408 µM | 1.66e-05 s⁻¹ | 409 M⁻¹ s⁻¹ | – | > 10000 nM | 1740 nM | – | – | – | – | – | – | –
8 | CC#CC(=O)N1CC(n2cc(-c3cc(C#N)c4c(c3)Nc3nccc(N5CCOCC5)c3C(C)O4)cn2)C1 (stereo not shown) [Compound 417] | 0.0223 µM | 1.51e-05 s⁻¹ | 678 M⁻¹ s⁻¹ | – | 2950 nM | 58.9 nM | – | – | – | – | – | – | –
9 | C=CC(=O)N1CC(N2CCC(c3ccc4c(c3)Nc3ncc(Cl)c(N5CCOCC5)c3CO4)CC2)C1 [Compound 13] | – | – | – | 1040 M⁻¹ s⁻¹ | > 10000 nM | 135 nM | – | – | – | – | – | – | –
10 | CC#CC(=O)N1CCC(N2CC(c3cc4c(c(CCC)n3)OCc3c(N5CCOCC5)ccnc3N4)C2)CC1 [Compound 347] | 0.036 µM | 2.84e-05 s⁻¹ | 791 M⁻¹ s⁻¹ | – | 5130 nM | 47.9 nM | – | – | – | – | – | – | –
11 | C=CC(=O)N1CC(N2CCC(c3cc(C)c4c(c3)Nc3nccc(N5CCS(=O)(=O)CC5)c3CO4)CC2)C1 [Compound 71] | 0.0575 µM | 5.6e-05 s⁻¹ | 973 M⁻¹ s⁻¹ | – | > 10000 nM | 245 nM | – | – | – | – | – | – | –
12 | C=CC(=O)N1CC(N2CCC(c3cc(Cl)c4c(c3)Nc3nccc(C5CCOCC5)c3CO4)CC2)C1 [Compound 119] | – | – | – | – | – | – | – | – | – | – | <5 | 7.42 | 1611.37 M⁻¹ s⁻¹
13 | CC#CC(=O)N1CC(N2CCC(c3cc4c(c(C)n3)O[C@@H](C)c3c(N5CCOCC5)ccnc3N4)CC2)C1 (single isomer, unassigned) [Compound 344] | 17.1 µM | 5.4e-05 s⁻¹ | 3.15 M⁻¹ s⁻¹ | – | > 10000 nM | 3980 nM | – | – | – | – | – | – | –
14 | C=CC(=O)N1CC[C@@H](N2CC(c3cc4c(c(C)n3)O[C@H](C)c3c(C5CCOCC5)ccnc3N4)C2)C1 (single isomer, unassigned) [Compound 413] | 0.0374 µM | 4.94e-05 s⁻¹ | 1320 M⁻¹ s⁻¹ | – | > 10000 nM | 75.9 nM | – | – | – | – | – | – | –
15 | C#Cc1cc2c(cc1C1CCN(C3CN(C(=O)C=C)C3)CC1)Nc1nccc(C3CCOCC3)c1C(C)O2 (stereo not shown) [Compound 169] | 0.0532 µM | 3.63e-05 s⁻¹ | 682 M⁻¹ s⁻¹ | – | > 10000 nM | 53.7 nM | – | – | – | – | – | – | –
16 | C#CCCN(C)C/C=C/C(=O)N1CC(N2CCC(c3ccc4c(c3)Nc3nccc(N5CCOCC5)c3C(C)O4)CC2)C1 (stereo not shown) [Compound 146] | 0.0285 µM | 5.53e-05 s⁻¹ | 1940 M⁻¹ s⁻¹ | – | > 10000 nM | 214 nM | – | – | – | – | – | – | –
